Measured values reported in ChEMBL document CHEMBL1152245 (Bioorg Med Chem Lett, 2008).
Active and inactive are the calls of the source. The rule behind the calls is not given here.

Assays:
Assay type in all cases: functional
[1] = target: T1, Muscarinic acetylcholine receptor M5 (Homo sapiens) (UniProt P08912); assay: Agonist activity at muscarinic M5 receptor at up to 30 uM
T1 sequence (whole entry): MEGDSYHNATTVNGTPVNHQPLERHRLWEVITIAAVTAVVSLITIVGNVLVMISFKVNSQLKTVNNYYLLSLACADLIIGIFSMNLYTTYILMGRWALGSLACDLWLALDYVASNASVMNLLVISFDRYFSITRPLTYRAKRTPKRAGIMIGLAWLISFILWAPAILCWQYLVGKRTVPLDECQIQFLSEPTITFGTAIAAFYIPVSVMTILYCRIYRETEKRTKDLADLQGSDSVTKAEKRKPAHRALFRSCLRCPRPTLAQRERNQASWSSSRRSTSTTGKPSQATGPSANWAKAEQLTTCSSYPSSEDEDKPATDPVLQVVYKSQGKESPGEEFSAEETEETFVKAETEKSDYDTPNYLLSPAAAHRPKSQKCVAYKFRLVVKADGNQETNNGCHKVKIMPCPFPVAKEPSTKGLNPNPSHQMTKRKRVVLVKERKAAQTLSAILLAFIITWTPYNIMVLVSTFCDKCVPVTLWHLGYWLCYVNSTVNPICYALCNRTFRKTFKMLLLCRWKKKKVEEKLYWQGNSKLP

[2] = target: T2, Muscarinic acetylcholine receptor M1 (Homo sapiens) (UniProt P11229); assay: Agonist activity at muscarinic M1 receptor relative to carbachol
T2 sequence (whole entry): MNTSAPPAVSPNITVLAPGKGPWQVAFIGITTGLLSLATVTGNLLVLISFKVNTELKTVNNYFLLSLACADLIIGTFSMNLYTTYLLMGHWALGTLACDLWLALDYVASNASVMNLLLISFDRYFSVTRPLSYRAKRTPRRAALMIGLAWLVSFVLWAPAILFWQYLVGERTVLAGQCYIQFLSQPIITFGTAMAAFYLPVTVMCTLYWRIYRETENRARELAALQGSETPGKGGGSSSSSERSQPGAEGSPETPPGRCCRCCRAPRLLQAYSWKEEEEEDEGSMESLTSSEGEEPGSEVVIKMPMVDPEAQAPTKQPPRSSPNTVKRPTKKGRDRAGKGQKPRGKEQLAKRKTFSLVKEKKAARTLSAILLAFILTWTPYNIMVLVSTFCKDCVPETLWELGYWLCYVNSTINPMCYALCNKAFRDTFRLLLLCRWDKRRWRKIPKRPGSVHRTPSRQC

[3] = target: T3, Muscarinic acetylcholine receptor M1 (Homo sapiens, UniProt P11229); assay: Agonist activity at muscarinic M1 receptor
T3 sequence (P11229 whole entry): T2 sequence (whole entry)

[4] = target: T4, Muscarinic acetylcholine receptor M3 (Homo sapiens, UniProt P20309); assay: Agonist activity at muscarinic M3 receptor at up to 30 uM
Target sequence in this assay (P20309 whole entry, looked up): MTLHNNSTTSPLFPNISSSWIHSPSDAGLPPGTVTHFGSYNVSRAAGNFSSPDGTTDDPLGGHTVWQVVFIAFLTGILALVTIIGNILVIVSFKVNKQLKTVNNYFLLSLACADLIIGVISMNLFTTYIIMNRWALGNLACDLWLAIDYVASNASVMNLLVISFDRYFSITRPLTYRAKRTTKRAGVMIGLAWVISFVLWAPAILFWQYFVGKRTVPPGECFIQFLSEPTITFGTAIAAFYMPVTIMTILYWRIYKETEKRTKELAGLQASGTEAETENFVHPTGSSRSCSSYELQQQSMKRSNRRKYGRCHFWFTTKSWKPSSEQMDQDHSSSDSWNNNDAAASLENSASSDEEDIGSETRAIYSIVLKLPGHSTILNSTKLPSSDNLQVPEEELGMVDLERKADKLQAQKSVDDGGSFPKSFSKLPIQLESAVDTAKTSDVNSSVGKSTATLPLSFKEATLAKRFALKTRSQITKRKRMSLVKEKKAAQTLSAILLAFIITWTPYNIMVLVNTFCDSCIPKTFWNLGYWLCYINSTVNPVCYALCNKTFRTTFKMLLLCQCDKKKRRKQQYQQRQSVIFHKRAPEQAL

[5] = target: T5, Muscarinic acetylcholine receptor M2 (Homo sapiens) (UniProt P08172); assay: Agonist activity at muscarinic M2 receptor at up to 30 uM
T5 sequence (whole entry): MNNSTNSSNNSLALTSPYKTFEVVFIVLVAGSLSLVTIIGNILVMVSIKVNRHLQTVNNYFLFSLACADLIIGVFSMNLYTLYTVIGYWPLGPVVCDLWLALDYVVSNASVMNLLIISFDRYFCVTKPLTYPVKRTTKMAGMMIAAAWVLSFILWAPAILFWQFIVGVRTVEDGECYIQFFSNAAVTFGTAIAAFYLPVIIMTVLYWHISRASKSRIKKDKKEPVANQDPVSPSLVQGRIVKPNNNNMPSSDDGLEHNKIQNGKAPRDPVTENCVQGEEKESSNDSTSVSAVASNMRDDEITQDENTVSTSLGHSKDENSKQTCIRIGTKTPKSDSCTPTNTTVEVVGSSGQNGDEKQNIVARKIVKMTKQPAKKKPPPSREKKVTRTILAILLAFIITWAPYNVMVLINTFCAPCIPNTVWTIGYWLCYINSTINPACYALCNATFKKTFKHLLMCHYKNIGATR

[6] = target: T6, Muscarinic acetylcholine receptor M4 (Homo sapiens) (UniProt P08173); assay: Agonist activity at muscarinic M4 receptor at up to 30 uM
T6 sequence (whole entry): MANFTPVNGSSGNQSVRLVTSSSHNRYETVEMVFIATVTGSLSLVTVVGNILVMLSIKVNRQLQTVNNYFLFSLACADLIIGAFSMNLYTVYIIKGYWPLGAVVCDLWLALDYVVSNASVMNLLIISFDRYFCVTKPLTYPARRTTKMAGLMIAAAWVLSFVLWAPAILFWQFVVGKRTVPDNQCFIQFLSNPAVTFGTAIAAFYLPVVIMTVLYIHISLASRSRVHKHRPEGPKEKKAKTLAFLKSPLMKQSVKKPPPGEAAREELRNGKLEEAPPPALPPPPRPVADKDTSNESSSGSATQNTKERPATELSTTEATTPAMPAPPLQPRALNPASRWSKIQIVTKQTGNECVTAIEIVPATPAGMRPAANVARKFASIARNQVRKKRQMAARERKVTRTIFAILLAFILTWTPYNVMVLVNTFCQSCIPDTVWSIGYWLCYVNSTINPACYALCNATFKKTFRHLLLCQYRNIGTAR

[7] = target: T7, Muscarinic acetylcholine receptor M4 (Homo sapiens, UniProt P08173); assay: Agonist activity at muscarinic M4 receptor
T7 sequence (P08173 whole entry): T6 sequence (whole entry)

[8] = target: T4, Muscarinic acetylcholine receptor M3; assay: Agonist activity at muscarinic M3 receptor
Target sequence in this assay (P20309 whole entry): as the sequence (P20309 whole entry, looked up) above

[9] = target: T8, Muscarinic acetylcholine receptor M2 (Homo sapiens, UniProt P08172); assay: Agonist activity at muscarinic M2 receptor
T8 sequence (P08172 whole entry): T5 sequence (whole entry)

[10] = target: T9, Muscarinic acetylcholine receptor M5 (Homo sapiens, UniProt P08912); assay: Agonist activity at muscarinic M5 receptor
T9 sequence (P08912 whole entry): T1 sequence (whole entry)

D(2) dopamine receptor = D(2) dopamine receptor (Homo sapiens, UniProt P14416); assay: Antagonist activity at dopamine D2 receptor
D(2) dopamine receptor, sequence (P14416 whole entry): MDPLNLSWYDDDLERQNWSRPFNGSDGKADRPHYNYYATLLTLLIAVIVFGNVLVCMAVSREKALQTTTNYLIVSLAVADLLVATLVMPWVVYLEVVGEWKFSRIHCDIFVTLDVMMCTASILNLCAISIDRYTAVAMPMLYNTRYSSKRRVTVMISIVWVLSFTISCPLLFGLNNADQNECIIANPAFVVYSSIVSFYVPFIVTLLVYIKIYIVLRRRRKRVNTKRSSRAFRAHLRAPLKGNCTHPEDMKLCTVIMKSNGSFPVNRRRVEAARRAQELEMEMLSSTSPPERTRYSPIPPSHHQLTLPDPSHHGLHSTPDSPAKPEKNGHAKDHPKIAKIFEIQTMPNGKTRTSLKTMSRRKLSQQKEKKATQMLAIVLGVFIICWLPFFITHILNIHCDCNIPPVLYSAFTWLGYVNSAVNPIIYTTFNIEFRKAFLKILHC

[11] = target: T5, Muscarinic acetylcholine receptor M2 (Homo sapiens); assay: Agonist activity at muscarinic M2 receptor relative to carbachol
[12] = target: T6, Muscarinic acetylcholine receptor M4 (Homo sapiens); assay: Agonist activity at muscarinic M4 receptor relative to carbachol
[13] = target: T1, Muscarinic acetylcholine receptor M5 (Homo sapiens); assay: Agonist activity at muscarinic M5 receptor relative to carbachol

Row | Structure (SMILES) | Activity [1] | Activity [2] [%] | EC50 [3] [µM] | Activity [4] | Activity [5] | Activity [6] | EC50 [7] [µM] | EC50 [8] [µM] | EC50 [9] [µM] | EC50 [10] [µM] | IC50 (D(2) dopamine receptor) [µM] | Activity [11] [%] | Activity [12] [%] | Activity [13] [%]
1 | Cc1cccc(C(=O)N2CCC(N3CCC(n4c(=O)[nH]c5cc(Cl)ccc54)CC3)CC2)c1 | inactive | 50 | 2.11 | inactive | inactive | inactive | – | – | – | – | – | – | – | –
2 | O=c1[nH]c2cc(Br)ccc2n1C1CCN(C2CCN(S(=O)(=O)c3ccccc3)CC2)CC1 | – | 81 | 4.4 | – | – | – | > 30 | > 30 | > 30 | – | – | – | – | –
3 | O=C(c1cccc(Cl)c1)N1CCC(N2CCC(n3c(=O)[nH]c4ccccc43)CC2)CC1 | inactive | 21 | 0.93 | inactive | inactive | inactive | – | – | – | – | – | – | – | –
4 | O=C(c1ccccc1C(F)(F)F)N1CCC(N2CCC(n3c(=O)[nH]c4cc(Cl)ccc43)CC2)CC1 | inactive | 24 | 11.1 | inactive | inactive | inactive | – | – | – | – | – | – | – | –
5 | Cc1cccc(C(=O)N2CCC(N3CCC(n4c(=O)[nH]c5ccccc54)CC3)CC2)c1 | inactive | 53 | 0.51 | inactive | inactive | inactive | – | – | – | – | – | – | – | –
6 | O=c1[nH]c2ccc(F)cc2n1C1CCN(C2CCN(S(=O)(=O)c3ccccc3)CC2)CC1 | – | 76 | 3.3 | – | – | – | > 30 | > 30 | > 30 | > 30 | > 10 | – | – | –
7 | O=C(Nc1cccc(SC(F)(F)F)c1)N1CCC(N2CCC(n3c(=O)[nH]c4ccccc43)CC2)CC1 | – | 85 | 6.5 | – | – | – | > 30 | > 30 | > 30 | – | – | – | – | –
8 | NC(=O)OCCN1CCC(N2CCC(n3c(=O)[nH]c4ccccc43)CC2)CC1 | – | – | – | – | – | – | 0.0091 | – | 0.0119 | 0.0343 | – | 80.6 | 96.9 | 50.8
9 | O=C(c1ccccc1C(F)(F)F)N1CCC(N2CCC(n3c(=O)[nH]c4ccccc43)CC2)CC1 | inactive | 32 | 0.91 | inactive | inactive | inactive | – | – | – | – | – | – | – | –
10 | Cc1ccccc1C(=O)N1CCC(N2CCC(n3c(=O)[nH]c4cc(Cl)ccc43)CC2)CC1 | inactive | 56 | 2.71 | inactive | inactive | inactive | – | – | – | – | – | – | – | –
11 | O=c1[nH]c2cc(F)ccc2n1C1CCN(C2CCN(S(=O)(=O)c3ccccc3)CC2)CC1 | – | 82 | 2.3 | – | – | – | > 30 | > 30 | > 30 | > 30 | 3.6 | – | – | –
12 | O=c1[nH]c2c(F)cccc2n1C1CCN(C2CCN(S(=O)(=O)c3ccccc3)CC2)CC1 | – | 49 | 2.6 | – | – | – | > 30 | > 30 | > 30 | – | – | – | – | –
13 | O=C(Nc1cccc(SC(F)(F)F)c1)N1CCC(N2CCC(n3c(=O)[nH]c4c(F)cccc43)CC2)CC1 | – | 46 | > 10 | – | – | – | > 30 | > 30 | > 30 | – | – | – | – | –
14 | O=C(Nc1cccc(SC(F)(F)F)c1)N1CCC(N2CCC(n3c(=O)[nH]c4cc(Cl)ccc43)CC2)CC1 | – | 90 | 3.6 | – | – | – | > 30 | > 30 | > 30 | – | – | – | – | –
15 | O=c1[nH]c2cc(Cl)ccc2n1C1CCN(C2CCN(S(=O)(=O)c3ccccc3)CC2)CC1 | – | 82 | 4.1 | – | – | – | > 30 | > 30 | > 30 | – | – | – | – | –
16 | O=c1[nH]c2ccccc2n1C1CCN(C2CCN(Cc3ccccc3C(F)(F)F)CC2)CC1 | – | 80 | – | – | – | – | – | – | – | – | – | – | – | –
17 | Cc1ccccc1CN1CCC(N2CCC(n3c(=O)[nH]c4ccccc43)CC2)CC1 | – | – | – | – | – | – | – | – | – | – | 5.1 | – | – | –
18 | Cc1ccccc1C(=O)N1CCC(N2CCC(n3c(=O)[nH]c4ccccc43)CC2)CC1 | inactive | 60 | 0.88 | inactive | inactive | inactive | – | – | – | – | – | – | – | –
19 | O=c1[nH]c2ccccc2n1C1CCN(C2CCN(S(=O)(=O)c3ccccc3)CC2)CC1 | – | 82 | 1.4 | – | – | – | – | – | – | – | – | – | – | –
20 | O=C(Nc1cccc(SC(F)(F)F)c1)N1CCC(N2CCC(n3c(=O)[nH]c4ccc(F)cc43)CC2)CC1 | – | 72 | 9.6 | – | – | – | > 30 | > 30 | > 30 | – | – | – | – | –
21 | O=C(c1cccc(Cl)c1)N1CCC(N2CCC(n3c(=O)[nH]c4cc(Cl)ccc43)CC2)CC1 | inactive | 21 | 7.11 | inactive | inactive | inactive | – | – | – | – | – | – | – | –
